Data reported in patent US6924304B2, “Cell proliferation inhibitors” (Abbott Laboratories, priority 1999, dated 2005).
Counter-ions that a name gives are not always drawn.

Assays:
[1] = tested on: human lung large cell carcinoma, MDR negative (NCI-H460) cells; assay: 48-hour cellular proliferation assay (sulforhodamine staining), NCI-H460 cells; assay type: cell-based; conditions: Homo sapiens, 10^−4 M compound, read-out: NCI-460 % inhibition at 10^−4 M
Experimental: (§1) Compounds of this invention were tested in a 48-hour cellular proliferation assay which uses human colon adenocarcinoma, MDR positive (HCT-15) cells, and human lung large cell carcinoma, MDR negative (NCI-H460) cells, in the 96-well microtitre format described in Skehan P., et al. New Colorimetric Cytotoxicity Assay for Anticancer Drug Screening. 1990, J. Natl. Cancer Inst. 82:1107-1112, hereby incorporated by reference. Briefly, the wells of a microtitre plate were charged sequentially with cultured cells and compounds of the invention (1.0×10^−4 to 1.0×10^−11 M in 10% DMSO prepared by dissolving compounds of the invention in DMSO and adding 11 μL of the DMSO solution to 100 μL of culture medium for a final DMSO concentration of 10%). Two of the following controls were also present in each microtitre plate: a solvent (DMSO) control without drug that yielded a 0% inhibition level and a trichloroacetic acid-treated well that yielded a 100% inhibition level. The cells were grown in culture (37° C., 5% CO2 atmosphere) for 48 hours then fixed by the addition of trichloroacetic acid. The wells were stained with sulforhodamine, washed with 1% acetic acid, and treated with 0.01 M tris buffer (100 μL) to solubilize the adherent dye. The absorbance of the dye solution was measured with a Molecular Devices SpectraMax340 plate reader. The percent inhibition values were obtained by calculating the proportional response of the experimental values to the absorbance values of the controls.

[2] = tested on: human colon adenocarcinoma, MDR positive (HCT-15) cells; assay: 48-hour cellular proliferation assay (sulforhodamine staining), HCT-15 cells; assay type: cell-based; conditions: Homo sapiens, 10^−4 M compound, HCT-15 cells (MDR positive)
Experimental: as §1

COc1cc(N(C(=O)CN(C)C)S(=O)(=O)c2ccc3c(ccn3C)c2)cc(OC)c1OC (as salt: salt) [Example 67, N-((dimethylamino)acetyl)-1-methyl-N-(3,4,5-trimethoxyphenyl)-1H-indole-5-sulfonamide]
melting point: 200 to 203 °C

COc1cc(N(C(=O)[C@@H](N)Cc2cnc[nH]2)S(=O)(=O)c2ccc3c(ccn3C)c2)cc(OC)c1OC [Example 76, N-((2S)-2-amino-3-(1H-imidazol-5-yl)propanoyl)-1-methyl-N-(3,4,5-trimethoxyphenyl)-1H-indole-5-sulfonamide]
melting point: 175 to 177 °C

COc1ccc(CSc2cc(OC)c(OC)c(OC)c2)cc1 [Example 85, 1,2,3-trimethoxy-5-((4-methoxybenzyl)sulfanyl)benzene]
melting point: 65 to 67 °C
inhibition at 100 µM [1]: 99.6%
inhibition at 100 µM [2]: 99.8%

COc1ccc(C[S+]([O-])c2cc(OC)c(OC)c(OC)c2)cc1 (centres unmarked) [Example 86, 1,2,3-trimethoxy-5-((4-methoxybenzyl)sulfinyl)benzene]
melting point: 103 to 105 °C
inhibition at 100 µM [1]: 96.5%
inhibition at 100 µM [2]: 99.4%

COc1ccc(CS(=O)(=O)c2cc(OC)c(OC)c(OC)c2)cc1 [Example 87, 1,2,3-trimethoxy-5-((4-methoxybenzyl)sulfonyl)benzene]
melting point: 95 to 97 °C
inhibition at 100 µM [1]: 99.6%
inhibition at 100 µM [2]: 99.9%
